The results in this text go back to patent US20100068150A1, “Selective Caspase Inhibitors” (The Board of Trustees of the Leland Stanford Junior …, priority 2006, published 2010).

Assay [1] concerns the target T1, mature p20 forms of caspase-7 (Homo sapiens, UniProt P55210).
T1 construct: p20 is mature large subunit of caspase-7 with N-terminal peptide removed; processing of the zymogen to the large and small subunits by activity of the initiator caspases; endogenous in cells
T1 sequence (P55210 24-198 limits assumed): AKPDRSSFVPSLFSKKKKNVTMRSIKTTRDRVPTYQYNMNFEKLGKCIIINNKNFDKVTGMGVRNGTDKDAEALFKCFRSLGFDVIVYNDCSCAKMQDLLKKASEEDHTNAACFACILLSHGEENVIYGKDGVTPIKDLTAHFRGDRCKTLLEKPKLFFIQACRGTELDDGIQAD
T1 sequence (P55210 207-303 limits assumed): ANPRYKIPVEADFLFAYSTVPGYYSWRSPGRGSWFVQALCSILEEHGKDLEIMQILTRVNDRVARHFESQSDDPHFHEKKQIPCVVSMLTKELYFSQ
Briefly: Inhibitor specificity in hypotonic 293 extracts, mature p20 caspase-7. It counts as biochemical. The conditions noted are these: inhibitor 20 μM for 5 min, then KMB01 30 min. The text has this: (§1) FIGS. 6 A-E illustrate that full-length active caspase-7 has unique inhibitor specificity and is processed to mature forms by downstream executioner caspases. (A) The caspase-3 specific inhibitor causes accumulation of a catalytically active full-length form of caspase-7. Cytosolic extracts from 293 cells were activated with cytochrome c/dATP for the indicated times followed by labeling with KMB01 (left panel) and western blotting with a caspase-7 specific antibody (right panel) as in FIG. 5A. […] (B) The exact same experiment as (A) except extracts from MCF-7 cells were used in place of 293 extracts. (**) indicates forms of caspase-7 that are likely a result of the alternative transcription start site at methionine-45 (C) Quantification of the relative activity of FL-C7 in uninhibited 293 extracts (from FIG. 5A), AB06 treated 293 extracts (from (A)) and uninhibited MCF-7 extracts (from (B)) (D) Inhibitor specificity of full-length and processed forms of caspase-7. Extracts (293) were activated for 5 min with cytochrome c/dATP and then incubated with NP-capped AOMK inhibitors containing the indicated primary amino acid sequences for 5 minutes before KMB01 was added and allowed to label residual caspase active sites for 30 minutes. Samples were analyzed by SDS-PAGE followed by biotin blotting using strepavidin-HRP (left panel) or western blotting for caspase-7 (right panel). Identities of labeled caspases are indicated. (E) Specificity of AB06 after prolonged incubation times. Extracts were treated with AB06 at the indicated concentrations simultaneously with cytochrome c/dATP. At the indicated times after activation, samples were labeled with KMB01 (10 μM) for 30 minutes. Labeled caspases were resolved by SDS-PAGE analysis followed by biotin blotting using strepavidin-HRP.
An additional surprising finding from the inhibitor studies was the overall lack of inhibition of the FL-C7 species by AB06 relative to mature p20 forms of caspase-7. This was surprising since the sequence of AB06 (NP-D3VD-AOMK) differs from the KMB01 probe sequence (Bio-EVD-AOMK) only at the P3 residue. […] We therefore wanted to use inhibitors to compare the ability of different P3 elements to bind to full-length and p20 mature forms of caspase-7. […] Samples were analyzed for active site labeling and protein levels of both full-length and p20 forms of caspase-7 were monitored by western blot (FIG. 6D).
(§2) Hypotonic 293 extracts (73 μg of total protein) were activated at 37° C. for 5 minutes as described above. […] Samples (13.5 μg total protein) were analyzed by SDS-PAGE and biotin blotting as described above

Assay [2] addresses T2, FL-C7 (full-length caspase-7) (Homo sapiens, UniProt P55210).
T2 construct: the p37 band as the full-length caspase-7 with intact N-terminus (FL-C7); endogenous in cells
T2 sequence (P55210 1-303): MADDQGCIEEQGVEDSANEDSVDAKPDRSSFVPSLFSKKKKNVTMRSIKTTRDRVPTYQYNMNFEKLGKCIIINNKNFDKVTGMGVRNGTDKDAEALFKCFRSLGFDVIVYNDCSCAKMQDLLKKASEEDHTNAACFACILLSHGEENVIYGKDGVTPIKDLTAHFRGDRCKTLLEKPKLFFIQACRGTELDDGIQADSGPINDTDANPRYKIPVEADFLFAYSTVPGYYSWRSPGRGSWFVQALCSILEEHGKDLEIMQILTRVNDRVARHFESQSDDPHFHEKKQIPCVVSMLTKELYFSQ
Briefly: Inhibitor specificity in hypotonic 293 extracts, full-length caspase-7. The format is biochemical. The note with it: inhibitor 20 μM for 5 min, then KMB01 30 min.
From the text: as §1
To further confirm our assignment of the labeled species we treated samples at various activation times with purified recombinant Bir3 domain of XIAP. […]
An additional surprising finding from the inhibitor studies was the overall lack of inhibition of the FL-C7 species by AB06 relative to mature p20 forms of caspase-7. […] Samples were analyzed for active site labeling and protein levels of both full-length and p20 forms of caspase-7 were monitored by western blot (FIG. 6D).
Hypotonic 293 extracts (73 μg of total protein) were activated as described above and allowed to incubate for the indicated times. […] Labeling was carried out for an additional 30 minutes and samples (13.5 μg total protein) were analyzed by SDS-PAGE and biotin blotting as described above.
as §2

In the case of `Cc1cccc(C)c1C(=O)OCC(=O)[C@H](CC(=O)O)NC(=O)[C@@H](NC(=O)[C@H](CCC(=O)O)NC(=O)[C@H](CC(=O)O)NC(=O)Cc1ccc(O)c([N+](=O)[O-])c1)C(C)C` [AB09, Np-D-E- V-D-DMBA], the “block of KMB01 labeling of mature p20 caspase-7” value in assay [1] is given as “efficiently blocked labeling”. Moreover, the “inhibition of FL-C7 labeling” value in assay [2] was “almost totally inhibited”.
In the same order, the values of `Cc1cccc(C)c1C(=O)OCC(=O)[C@H](CC(=O)O)NC(=O)[C@@H](NC(=O)[C@H](Cc1ccncc1)NC(=O)[C@H](CC(=O)O)NC(=O)Cc1ccc(O)c([N+](=O)[O-])c1)C(C)C` [AB06, Np-D-3-V-D-DMBA] are “efficiently blocked labeling” and “relatively insensitive to inhibition”.
